Measured values as given in paper PMC9709406 (Frontiers in Pharmacology, 2022).
“And” between values parts separate entries of the source, which are not always exact repeats. Identical values can stand only once.

How the values were obtained:
[1] = tested on: H1650 cells; assay: MTT assay for cell proliferation and cytotoxicity, H1650; type: cell-based; details: Homo sapiens, NCI-H1650, 48 h, H1650, n = 5
Excerpt: (§1) The human cancer cells (H1650, H1975, KYSE70, KYSE410 and KYSE450) were purchased from the Type Culture Collection of the Chinese Academy of Sciences (Shanghai, China). The human immortalized normal esophageal epithelial cell line SHEE was donated by Dr. Enmin Li from the Laboratory of Tumor Pathology (Shantou University Medical College, Shantou, Guangdong, China). Drug-resistant cells (H1650TR, H1975OR, KYSE70TR, KYSE410TR and KYSE450TR) were induced by China-US (Henan) Hormel Cancer Institute. The cellswere cultured in RPMI-1640 complete growth medium containing 100 U/mL penicillin-streptomycin and 10% FBS. Based on the above medium formula, 100 nm/L paclitaxel was added in taxol-resistant cells, 100 nm/L gefitinib was added in gefitinib-resistant cells. The cells were incubated at 37 °C in an atmosphere containing 5% of CO2. The compounds were dissolved in DMSO to make a 50 mM stock solution and were diluted to the concentration of working solutions with complete growth medium before administration.
(§2) Cells were seeded in 96-well plates with 2,200–2,500 cells/well in100 μL. One day after seeding, test compounds with the concentration between 0 and 50 μM were added with 0.1% DMSO as control. Five multiple wells for each concentration. After 48 h, MTT was added and incubated in the plate for 1–4 h in the incubator. The absorbance at 490 nm was measured using a microplate reader (Thermo).

[2] = tested on: H1975 cells; assay: MTT assay for cell proliferation and cytotoxicity, H1975; type: cell-based, human; details: Homo sapiens, NCI-H1975, 48 h, MTT, 48 h, H1975, n = 5; read-out: IC50 48 h H1975
Excerpt: as §1
as §2, with “After 48 h, MTT was added and incubated in the plate for 1–4 h in the incubator.” left out

[3] = tested on: SHEE cells; assay: MTT assay, normal esophageal epithelial cell line SHEE; type: cell-based; details: Homo sapiens, 48 h, n = 5
Excerpt: as §1, §2

[4] = tested on: KYSE70 cells; assay: MTT assay, KYSE70; type: cell-based, human; details: for IC50: Homo sapiens, KYSE-70, MTT, 48 h, KYSE70, n = 5
Excerpt: as §1, §2

[5] = tested on: KYSE410 cells; assay: MTT assay, KYSE410; type: cell-based, human; details: for IC50: Homo sapiens, KYSE-410, MTT, 48 h, KYSE410, n = 5, read-out: IC50 48 h KYSE410
Excerpt: as §1, §2

[6] = tested on: KYSE450 cells; assay: MTT assay, KYSE450; type: cell-based, human; details: for IC50: Homo sapiens, KYSE-450, MTT, 48 h, KYSE450, n = 5, read-out: IC50 48 h KYSE450; for absorbance 490 nm, single well / mean absorbance 490 nm (row G) / mean absorbance 490 nm minus background (row H): KYSE450
Excerpt: as §1, §2

[7] = concentration 12.5 (unit not given)
[8] = concentration 25 (unit not given)
[9] = concentration 50 (unit not given)
[10] = concentration 100 (unit not given)

Compound | melting point [°C] | IC50 [1] [µM] | IC50 [2] [µM] | IC50 [3] [µM] | IC50 [4] [µM] | blank-corrected absorbance 490 nm relative to control (fraction) ([4]; KYSE70, concentration 12.5) | inhibition (1 minus fraction of control) ([4]; KYSE70, concentration 12.5) | blank-corrected absorbance 490 nm relative to control (fraction) ([4]; KYSE70, concentration 25) | inhibition (1 minus fraction of control) ([4]; KYSE70, concentration 25) | blank-corrected absorbance 490 nm relative to control (fraction) ([4]; KYSE70, concentration 50) | inhibition (1 minus fraction of control) ([4]; KYSE70, concentration 50) | blank-corrected absorbance 490 nm relative to control (fraction) ([4]; KYSE70, concentration 100) | inhibition (1 minus fraction of control) ([4]; KYSE70, concentration 100) | IC50 [5] [µM] | blank-corrected absorbance 490 nm relative to control (fraction) ([5]; KYSE410, concentration 12.5) | inhibition (1 minus fraction of control) ([5]; KYSE410, concentration 12.5) | blank-corrected absorbance 490 nm relative to control (fraction) ([5]; KYSE410, concentration 25) | inhibition (1 minus fraction of control) ([5]; KYSE410, concentration 25) | blank-corrected absorbance 490 nm relative to control (fraction) ([5]; KYSE410, concentration 50) | IC50 [6] [µM] | other results
Fc1ccc(CCn2cc(-c3cccc(Nc4ncnc5cc6c(cc45)OCCOCCOCCO6)c3)nn2)cc1 [compound 3v] | 110 to 113 | 11.6 ± 0.96 | 11.1 ± 0.95 | 8.26 ± 0.71 | 6.93 ± 0.37 | 0.0977 | 0.9023 | 0.03951 | 0.9605 | 0.1249 | 0.8751 | 0.0961 | 0.9039 | 21.6 ± 1.35 | 1.2383 | -0.2383 | 0.4202 | 0.5798 | 0.1986 | 11 ± 0.97 | inhibition (1 minus fraction of control) ([5]; KYSE410, concentration 50): 0.8014; blank-corrected absorbance 490 nm relative to control (fraction) ([5]; KYSE410, concentration 100): -0.03723; inhibition (1 minus fraction of control) ([5]; KYSE410, concentration 100): 1.037; absorbance 490 nm, single well [6, 7]: 0.3527 and 0.3885 and 0.4267 and 0.4169; mean absorbance 490 nm (row G) [6, 7]: 0.3962; mean absorbance 490 nm minus background (row H) [6, 7]: 0.3414; absorbance 490 nm, single well [6, 8]: 0.1525 and 0.1448 and 0.156 and 0.143 and 0.153; mean absorbance 490 nm (row G) [6, 8]: 0.1499; mean absorbance 490 nm minus background (row H) [6, 8]: 0.09506; absorbance 490 nm, single well [6, 9]: 0.0873 and 0.0943 and 0.1023 and 0.0955; mean absorbance 490 nm (row G) [6, 9]: 0.09485; mean absorbance 490 nm minus background (row H) [6, 9]: 0.04005; absorbance 490 nm, single well [6, 10]: 0.0657 and 0.0611 and 0.0638 and 0.0596 and 0.0609; mean absorbance 490 nm (row G) [6, 10]: 0.06222; mean absorbance 490 nm minus background (row H) [6, 10]: 0.00742
Cc1ccc(Cn2cc(-c3cccc(Nc4ncnc5cc6c(cc45)OCCOCCOCCO6)c3)nn2)cc1 [compound 3o] | 124 to 127 | 5.6 ± 0.29 | 8.7 ± 0.66 | 22.4 ± 1.26 | 14.6 ± 0.96 | – | – | – | – | – | – | – | – | > 50 | – | – | – | – | – | 4.81 ± 0.36 | –
Brc1ccccc1Cn1cc(-c2cccc(Nc3ncnc4cc5c(cc34)OCCOCCOCCO5)c2)nn1 [compound 3s] | 161 to 164 | 17.1 ± 1.64 | > 50 | 14.2 ± 0.94 | 9.35 ± 0.89 | – | – | – | – | – | – | – | – | 19.2 ± 1.22 | – | – | – | – | – | 23.4 ± 1.13 | –
c1ccc(Cn2cc(-c3cccc(Nc4ncnc5cc6c(cc45)OCCOCCOCCO6)c3)nn2)cc1 [compound 3r] | 146 to 149 | 19.6 ± 1.72 | 19.2 ± 1.59 | 21 ± 1.11 | 7.32 ± 0.62 | 0.2722 | 0.7278 | 0.1457 | 0.8543 | 0.1803 | 0.8197 | 0.1267 | 0.8733 | 9.23 ± 0.97 | 0.3227 | 0.6773 | 0.3216 | 0.6784 | 0.3502 | 28.1 ± 1.18 | inhibition (1 minus fraction of control) ([5]; KYSE410, concentration 50): 0.6498; blank-corrected absorbance 490 nm relative to control (fraction) ([5]; KYSE410, concentration 100): 0.1592; inhibition (1 minus fraction of control) ([5]; KYSE410, concentration 100): 0.8408; absorbance 490 nm, single well [6, 7]: 0.6476 and 0.598 and 0.6398 and 0.6662; mean absorbance 490 nm (row G) [6, 7]: 0.6379; mean absorbance 490 nm minus background (row H) [6, 7]: 0.586; absorbance 490 nm, single well [6, 8]: 0.4195 and 0.4416 and 0.4375 and 0.4182; mean absorbance 490 nm (row G) [6, 8]: 0.4292; mean absorbance 490 nm minus background (row H) [6, 8]: 0.3773; absorbance 490 nm, single well [6, 9]: 0.1593 and 0.152 and 0.1434; mean absorbance 490 nm (row G) [6, 9]: 0.1516; mean absorbance 490 nm minus background (row H) [6, 9]: 0.09971; absorbance 490 nm, single well [6, 10]: 0.127 and 0.1396 and 0.1367; mean absorbance 490 nm (row G) [6, 10]: 0.1344; mean absorbance 490 nm minus background (row H) [6, 10]: 0.08257
Cc1ccccc1Cn1cc(-c2cccc(Nc3ncnc4cc5c(cc34)OCCOCCOCCO5)c2)nn1 [compound 3n] | 114 to 117 | 17 ± 1.27 | 18.5 ± 1.43 | 8.05 ± 0.71 | 6.87 ± 0.51 | 0.09055 | 0.9094 | 0.002598 | 0.9974 | 0.03637 | 0.9636 | 0.0579 | 0.9421 | 8.23 ± 0.92 | 0.2414 | 0.7586 | 0.04668 | 0.9533 | 0.02603 | 13.4 ± 0.99 | inhibition (1 minus fraction of control) ([5]; KYSE410, concentration 50): 0.974; blank-corrected absorbance 490 nm relative to control (fraction) ([5]; KYSE410, concentration 100): 0.07058; inhibition (1 minus fraction of control) ([5]; KYSE410, concentration 100): 0.9294; absorbance 490 nm, single well [6, 7]: 0.3403 and 0.3956 and 0.3877; mean absorbance 490 nm (row G) [6, 7]: 0.3745; mean absorbance 490 nm minus background (row H) [6, 7]: 0.3163; absorbance 490 nm, single well [6, 8]: 0.0581 and 0.0586 and 0.0622 and 0.0619; mean absorbance 490 nm (row G) [6, 8]: 0.0602; mean absorbance 490 nm minus background (row H) [6, 8]: 0.002; absorbance 490 nm, single well [6, 9]: 0.062 and 0.0626 and 0.0677 and 0.0632; mean absorbance 490 nm (row G) [6, 9]: 0.06374; mean absorbance 490 nm minus background (row H) [6, 9]: 0.00554; absorbance 490 nm, single well [6, 10]: 0.0608 and 0.061 and 0.0613 and 0.0611 and 0.0627; mean absorbance 490 nm (row G) [6, 10]: 0.06138; mean absorbance 490 nm minus background (row H) [6, 10]: 0.00318
Ic1ccccc1Cn1cc(-c2cccc(Nc3ncnc4cc5c(cc34)OCCOCCOCCO5)c2)nn1 [compound 3p] | 121 to 123 | 4.41 ± 0.31 | 39.5 ± 1.91 | > 50 | 19.9 ± 1.31 | – | – | – | – | – | – | – | – | > 50 | – | – | – | – | – | > 50 | –

Second part, led by results:

melting point [°C] | Compound | IC50 [1] [µM] | IC50 [2] [µM] | IC50 [3] [µM] | IC50 [4] [µM] | blank-corrected absorbance 490 nm relative to control (fraction) ([4]; KYSE70, concentration 12.5) | inhibition (1 minus fraction of control) ([4]; KYSE70, concentration 12.5) | blank-corrected absorbance 490 nm relative to control (fraction) ([4]; KYSE70, concentration 25) | inhibition (1 minus fraction of control) ([4]; KYSE70, concentration 25) | blank-corrected absorbance 490 nm relative to control (fraction) ([4]; KYSE70, concentration 50) | inhibition (1 minus fraction of control) ([4]; KYSE70, concentration 50) | blank-corrected absorbance 490 nm relative to control (fraction) ([4]; KYSE70, concentration 100) | inhibition (1 minus fraction of control) ([4]; KYSE70, concentration 100) | IC50 [5] [µM] | blank-corrected absorbance 490 nm relative to control (fraction) ([5]; KYSE410, concentration 12.5) | inhibition (1 minus fraction of control) ([5]; KYSE410, concentration 12.5) | blank-corrected absorbance 490 nm relative to control (fraction) ([5]; KYSE410, concentration 25) | inhibition (1 minus fraction of control) ([5]; KYSE410, concentration 25) | blank-corrected absorbance 490 nm relative to control (fraction) ([5]; KYSE410, concentration 50) | IC50 [6] [µM] | other results
129 to 132 | Brc1ccccc1-n1cc(-c2cccc(Nc3ncnc4cc5c(cc34)OCCOCCOCCO5)c2)nn1 [compound 3k] | 17.7 ± 1.21 | 27.2 ± 1.67 | 12.5 ± 1.03 | 5.05 ± 0.34 | – | – | – | – | – | – | – | – | 21.9 ± 1.39 | – | – | – | – | – | 6.25 ± 0.57 | –
123 to 126 | Fc1cccc(-n2cc(-c3cccc(Nc4ncnc5cc6c(cc45)OCCOCCOCCO6)c3)nn2)c1 [compound 3a] | 15.6 ± 1.02 | 9.87 ± 0.88 | 12.1 ± 0.97 | 10.2 ± 0.88 | – | – | – | – | – | – | – | – | 48.6 ± 2.16 | – | – | – | – | – | 7.24 ± 0.65 | –
158 to 161 | Brc1ccc(-n2cc(-c3cccc(Nc4ncnc5cc6c(cc45)OCCOCCOCCO6)c3)nn2)cc1 [compound 3j] | 27.6 ± 1.85 | 5.02 ± 0.37 | > 50 | 50 | – | – | – | – | – | – | – | – | > 50 | – | – | – | – | – | 12.5 ± 1.22 | –
131 to 134 | COc1cccc(Cn2cc(-c3cccc(Nc4ncnc5cc6c(cc45)OCCOCCOCCO6)c3)nn2)c1 [compound 3t] | 21 ± 1.91 | 20 ± 1.52 | 33.3 ± 1.99 | > 50 | – | – | – | – | – | – | – | – | > 50 | – | – | – | – | – | 45.6 ± 2.01 | –
